The values that follow come from ChEMBL document CHEMBL1151716 (J Med Chem, 2008).

What is called IC50 is the concentration that inhibits the measured activity by half. The low end stands for inhibition by little substance, the high end for a need for much substance. By solubility is commonly meant the concentration that dissolves in the medium under given conditions.

Each structure is given as a SMILES string. In brackets after ≈: the same amount, converted by molar mass. Several values for one entry are separate records, joined by “and”; a condition that tells them apart may be missing. Equal values may be shown once.

The target of series [1] is 3',5'-cyclic-AMP phosphodiesterase 4D (Homo sapiens, UniProt Q08499).
Description: Inhibition of full length human PDE4D2 expressed in Escherichia coli BL21 by liquid scintillation counting
The target in series [2] is High affinity 3',5'-cyclic-AMP phosphodiesterase 7A (Homo sapiens, UniProt Q13946). Nature of the series: Inhibition of human cloned PDE7A1 catalytic domain expressed in Escherichia coli BL21 by liquid scintillation counting.
The test system of another series is PBMC. Put plainly: Inhibition of LPS-induced TNFalpha production in human PBMC. In kind it is functional, cell-based.
Series [3] deals with High affinity cGMP-specific 3',5'-cyclic phosphodiesterase 9A (Homo sapiens, UniProt O76083). Put plainly: Inhibition of human cloned PDE9A2 expressed in Escherichia coli BL21 by liquid scintillation counting.
Series [4] concerns the target cGMP-dependent 3',5'-cyclic phosphodiesterase (Homo sapiens, UniProt O00408). Nature of the series: Inhibition of human cloned PDE2A3 expressed in Escherichia coli BL21 by liquid scintillation counting.
For series [5], the target named is cGMP-specific 3',5'-cyclic phosphodiesterase (Homo sapiens, UniProt O76074). Put plainly: Inhibition of human cloned PDE5A1 expressed in Escherichia coli BL21 by liquid scintillation counting.
The nature of series [6]: Solubility in heavy water. In kind it is physicochemical.

Chain of cGMP-dependent 3',5'-cyclic phosphodiesterase (O00408 whole entry): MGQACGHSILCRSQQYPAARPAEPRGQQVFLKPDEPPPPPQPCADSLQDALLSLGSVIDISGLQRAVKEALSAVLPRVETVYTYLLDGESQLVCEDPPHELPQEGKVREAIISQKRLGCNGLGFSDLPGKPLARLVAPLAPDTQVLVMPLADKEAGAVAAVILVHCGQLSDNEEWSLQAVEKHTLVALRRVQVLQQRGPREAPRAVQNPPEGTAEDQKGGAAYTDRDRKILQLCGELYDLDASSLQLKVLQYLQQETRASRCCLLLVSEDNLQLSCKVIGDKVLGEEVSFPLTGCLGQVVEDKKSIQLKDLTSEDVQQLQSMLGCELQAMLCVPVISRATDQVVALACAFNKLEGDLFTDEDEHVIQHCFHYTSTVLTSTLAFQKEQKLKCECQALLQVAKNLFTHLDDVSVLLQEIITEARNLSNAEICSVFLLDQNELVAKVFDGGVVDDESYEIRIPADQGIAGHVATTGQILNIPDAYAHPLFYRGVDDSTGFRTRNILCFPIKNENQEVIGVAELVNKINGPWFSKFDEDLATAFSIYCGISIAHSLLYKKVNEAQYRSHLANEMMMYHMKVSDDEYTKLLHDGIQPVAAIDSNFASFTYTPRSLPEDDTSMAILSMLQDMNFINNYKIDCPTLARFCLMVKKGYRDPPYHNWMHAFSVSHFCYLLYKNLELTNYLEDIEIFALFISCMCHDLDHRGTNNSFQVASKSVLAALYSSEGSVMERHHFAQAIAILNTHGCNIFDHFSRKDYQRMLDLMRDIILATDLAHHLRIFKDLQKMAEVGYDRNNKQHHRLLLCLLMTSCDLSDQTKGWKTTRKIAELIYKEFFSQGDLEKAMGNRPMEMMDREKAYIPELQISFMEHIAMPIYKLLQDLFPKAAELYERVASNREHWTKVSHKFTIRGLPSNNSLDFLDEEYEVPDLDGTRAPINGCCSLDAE
Chain of 3',5'-cyclic-AMP phosphodiesterase 4D (Q08499 whole entry, the tested form may be a part): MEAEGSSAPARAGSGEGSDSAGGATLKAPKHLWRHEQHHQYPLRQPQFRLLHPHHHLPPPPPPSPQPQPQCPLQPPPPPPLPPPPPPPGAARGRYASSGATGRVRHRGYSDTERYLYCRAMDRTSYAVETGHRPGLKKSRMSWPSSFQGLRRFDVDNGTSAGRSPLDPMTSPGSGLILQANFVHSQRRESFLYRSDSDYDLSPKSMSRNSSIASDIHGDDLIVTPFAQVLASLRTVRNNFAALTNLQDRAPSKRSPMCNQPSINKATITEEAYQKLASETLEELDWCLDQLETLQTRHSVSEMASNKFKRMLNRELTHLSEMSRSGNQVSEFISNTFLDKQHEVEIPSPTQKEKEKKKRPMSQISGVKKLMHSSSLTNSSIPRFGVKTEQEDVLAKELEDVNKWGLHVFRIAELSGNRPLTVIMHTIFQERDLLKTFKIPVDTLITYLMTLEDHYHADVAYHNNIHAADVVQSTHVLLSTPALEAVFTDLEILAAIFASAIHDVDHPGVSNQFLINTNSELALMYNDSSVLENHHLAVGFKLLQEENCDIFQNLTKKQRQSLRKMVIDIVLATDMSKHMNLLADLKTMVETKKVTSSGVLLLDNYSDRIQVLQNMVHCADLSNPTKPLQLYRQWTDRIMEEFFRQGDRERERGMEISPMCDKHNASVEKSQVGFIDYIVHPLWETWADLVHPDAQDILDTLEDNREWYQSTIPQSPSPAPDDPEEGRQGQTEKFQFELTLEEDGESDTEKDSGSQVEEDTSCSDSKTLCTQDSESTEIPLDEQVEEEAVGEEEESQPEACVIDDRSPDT
Chain of High affinity cGMP-specific 3',5'-cyclic phosphodiesterase 9A (O76083 whole entry): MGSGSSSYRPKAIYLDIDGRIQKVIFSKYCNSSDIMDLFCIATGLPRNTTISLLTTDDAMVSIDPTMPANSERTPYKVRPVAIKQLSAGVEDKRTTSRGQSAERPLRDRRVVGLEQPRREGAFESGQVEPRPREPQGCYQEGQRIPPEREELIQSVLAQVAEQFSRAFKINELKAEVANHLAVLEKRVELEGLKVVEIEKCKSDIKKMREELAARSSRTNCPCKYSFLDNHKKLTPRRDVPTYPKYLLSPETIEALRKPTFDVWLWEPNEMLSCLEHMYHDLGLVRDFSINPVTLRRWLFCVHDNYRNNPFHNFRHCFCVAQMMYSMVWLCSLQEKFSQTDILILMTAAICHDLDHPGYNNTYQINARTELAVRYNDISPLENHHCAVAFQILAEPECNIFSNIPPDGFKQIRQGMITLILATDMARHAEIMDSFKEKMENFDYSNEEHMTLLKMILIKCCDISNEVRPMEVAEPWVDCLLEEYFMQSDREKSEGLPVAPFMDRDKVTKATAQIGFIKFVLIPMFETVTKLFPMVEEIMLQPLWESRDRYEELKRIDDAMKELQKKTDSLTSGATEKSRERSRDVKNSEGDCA
Chain of High affinity 3',5'-cyclic-AMP phosphodiesterase 7A (Q13946 whole entry, the tested form may be a part): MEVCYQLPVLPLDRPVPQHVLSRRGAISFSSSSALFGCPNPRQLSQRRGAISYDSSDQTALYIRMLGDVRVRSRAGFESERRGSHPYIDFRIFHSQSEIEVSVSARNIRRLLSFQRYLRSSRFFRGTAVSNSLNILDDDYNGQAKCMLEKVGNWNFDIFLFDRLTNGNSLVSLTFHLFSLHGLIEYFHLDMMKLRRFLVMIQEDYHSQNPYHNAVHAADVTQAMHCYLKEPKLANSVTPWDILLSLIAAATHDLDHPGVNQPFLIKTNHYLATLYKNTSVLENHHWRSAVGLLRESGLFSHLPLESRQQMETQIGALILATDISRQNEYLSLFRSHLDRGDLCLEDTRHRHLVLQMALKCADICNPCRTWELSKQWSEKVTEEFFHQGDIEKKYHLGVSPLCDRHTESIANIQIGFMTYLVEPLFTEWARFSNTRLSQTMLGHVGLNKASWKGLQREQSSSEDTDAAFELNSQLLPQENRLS

For the molecule `COc1ccc(C(=O)CCCc2ccccc2)cc1OC1CCOC1` (stereo not drawn), 2.29 µM corresponded to half-maximal inhibition in series [1] (IC50).
Still for that read-out and setting: next, `CCCCC(=O)c1ccc(OC2CCOCC2)c(OC)c1`: 71 µM; `CCCC(O)c1ccc(OC2CCOC2)c(OC)c1` (stereo not drawn): > 100 µM and 525 µM; `CCCCC(=O)c1ccc(OC(F)F)c(OC2CCOC2)c1` (stereo not drawn): 0.061 µM.
The same measure, in the same setting: next, `COc1ccc(C(=O)Nc2ccccc2C(F)(F)F)cc1OC1CCCC1`: 3.09 µM; `COc1ccc(C(=O)Nc2ccccc2F)cc1OC1CCCC1`: 10.7 µM; `O=C(CCc1ccccc1)c1ccc(OC(F)F)c(OC2CCOC2)c1` (stereo not drawn): 0.18 µM.
Still for that read-out and setting: the same measure for `COc1ccc(C(=O)Nc2c(F)cccc2F)cc1OC1CCCCC1`: 0.398 µM; for `CCCC(=O)c1ccc(OC(F)F)c(OC2CCOCC2)c1`: 0.35 µM.
In the case of `O=C(CCCc1ccccc1)c1ccc(OC(F)F)c(OC2CCOC2)c1` (stereo not drawn), the IC50 in series [1] amounted to 0.636 µM.
The same measure, in the same setting: next, `COc1ccc(C(=S)Nc2c(Cl)cccc2Cl)cc1OC1CCCC1`: 0.2 µM.
With `COc1ccc(C(=O)Nc2ccccc2Cl)cc1OC`, in series [1], the IC50 was 0.646 µM.
The molecule `O=C(CCCc1ccccc1)c1ccc(OC(F)F)c(OC(F)F)c1` returned an IC50 in series [1] of 44 µM.
Same read-out and setting: the same measure for `COc1ccc(C(=O)CCC2CCCCC2)cc1OC1CCOC1` (stereo not drawn): 1.9 µM.
Same read-out and setting: next, `O=C(CCC1CCCCC1)c1ccc(OC(F)F)c(OC2CCOC2)c1` (stereo not drawn): 1.1 µM.
Still for that read-out and setting: next, `COc1ccc(C(=O)Nc2c(F)cccc2F)cc1OC1CCCC1`: 0.0708 µM; `O=C(CCc1ccccc1)c1ccc(OC(F)F)c(OC(F)F)c1`: 0.82 µM.
Molecule `COc1ccc(C(=O)CCc2ccccc2)cc1OC1CCOC1` (stereo not drawn) returned an IC50 in series [1] of 2.6 µM.
The same measure, in the same setting: next, `CCCOc1cc(C(=O)Nc2c(F)cccc2F)ccc1OC`: 1.58 µM; `CCCC(=O)c1ccc(OC)c(OC2CCOC2)c1` (stereo not drawn): 0.43 µM.
Still for that read-out and setting: next, `COc1cc(C(CC(C)=O)c2cccnc2)ccc1O` (stereo not drawn): 80 µM; `CCCCC(O)c1ccc(OC2CCOC2)c(OC)c1` (stereo not drawn): > 100 µM and 398 µM.
Molecule `COc1ccc(C(=O)CCC(C)C)cc1OC1CCOC1` (stereo not drawn) returned an IC50 in series [1] of 0.38 µM.
Still for that read-out and setting: next, `CCCC(=O)c1ccc(OC(F)F)c(Oc2ccccn2)c1`: 40 µM; `COc1ccc(C(=O)Nc2c(Cl)cccc2Cl)cc1OC1CCCC1`: 0.0282 µM.
Same read-out and setting: next, `CCCCC(=O)c1ccc(OC)c(OC2CCOCC2)c1`: 0.72 µM.
Consider `CC(C)CC(=O)c1ccc(OC(F)F)c(OC2CCOC2)c1` (stereo not drawn), for which the IC50 in series [2] is more than 50 µM; with PBMC, 0.04 µM; in series [3], more than 50 µM; in series [4], more than 50 µM; in series [5], more than 50 µM.
In series [1], `CCCC(=O)c1ccc(OC2CCOC2)c(OC)c1` (stereo not drawn) returned an IC50 of 24 µM.
On the same count and under the same terms, the same measure for `COc1ccc(C(=O)CC2CCCCC2)cc1OC1CCOC1` (stereo not drawn): 2.6 µM; for `COc1ccc(C(=O)c2cnc3ccccc3c2)cc1OC1CCOCC1`: 45 µM; for `CCCCC(=O)c1ccc(OC2CCOC2)c(OC)c1` (stereo not drawn): 100 µM.
The same measure, in the same setting: next, `O=C(CC1CCCCC1)c1ccc(OC(F)F)c(OC2CCOC2)c1` (stereo not drawn): 0.667 µM; `CCCCC(O)c1ccc(OC)c(OC2CCOC2)c1` (stereo not drawn): 10 µM.
For the molecule `CC(C)CC(=O)c1ccc(OC(F)F)c(OC2CCCC2)c1`, the figures for the IC50 (in series [1]; with PBMC) were 0.028 µM and 0.1 µM, respectively.
Molecule `CCCCC(=O)c1ccc(OC)c(OC2CCOC2)c1` (stereo not drawn) displayed an IC50 in series [1] of 0.22 µM.
As to `COc1cc(C(CC(C)=O)c2cnc3ccccc3c2)ccc1Oc1ccccn1` (stereo not drawn), the IC50 was 6 µM in series [1]; more than 50 µM in series [2]; more than 50 µM in series [3]; more than 50 µM in series [4]; more than 50 µM in series [5].
The molecule `O=C(CC1CCCCC1)c1ccc(OC(F)F)c(OC(F)F)c1` showed a concentration for half-maximal inhibition (IC50) in series [1] of 5.2 µM.
The same measure, in the same setting: next, `CCCCC(c1cccnc1)c1ccc(Oc2ccccn2)c(OC)c1` (stereo not drawn): 10 µM; `CCCC(=O)c1ccc(OC2CCN(C(=O)OC(C)(C)C)CC2)c(OC)c1`: 29 µM; `CC(C)(C)C(=O)c1ccc(OC(F)F)c(OC2CCOC2)c1` (stereo not drawn): 0.41 µM.
Still for that read-out and setting: the same measure for `CCCC(=O)c1ccc(OC2CCOCC2)c(OC)c1`: 60 µM.
Same read-out and setting: the same measure for `CCCCC(O)c1ccc(OC2CCOCC2)c(OC)c1` (stereo not drawn): > 100 µM and 537 µM.
`CCCC(=O)c1ccc(OC)c(OC2CCOCC2)c1`: the IC50 in series [1] is 3.5 µM; in series [2], more than 50 µM; in series [3], more than 50 µM; in series [4], more than 50 µM; in series [5] it was more than 50 µM.
`CCCCC(=O)c1ccc(OC(F)F)c(OC2CCN(C(=O)OC(C)(C)C)CC2)c1` showed a 50% inhibitory concentration (IC50) in series [1] of 2.2 µM.
Still for that read-out and setting: the same measure for `CCCCC(=O)c1ccc(OC2CCN(C(=O)OC(C)(C)C)CC2)c(OC)c1`: 93 µM; for `CCCC(O)c1ccc(OC2CCOCC2)c(OC)c1` (stereo not drawn): > 100 µM and 1510 µM; for `COc1ccc(C(=O)Nc2c(F)cccc2F)cc1O`: 37.2 µM.
`CCCC(O)(c1ccc(Oc2ccccn2)c(OC)c1)c1cnc2ccccc2c1` (stereo not drawn): the IC50 was 6 µM in series [1]; 17 µM in series [2]; more than 50 µM in series [3]; more than 50 µM in series [4]; 40 µM in series [5].
As to `CCCCC(=O)c1ccc(OC)c(OC2CCNCC2)c1`, the midpoint of inhibition in series [1], the IC50, lay at 102 µM. Also, in series [6], the solubility stood at 800 µM (≈ 233 µg/mL).
On to `COc1ccc(C(=O)CC(C)C)cc1OC1CCOC1` (stereo not drawn), for which, in series [1], the IC50 is 0.19 µM and 0.178 µM.
